Experimental data published in patent publication US20150038471A1, “PROCESS FOR PREVENTING OR MITIGATING BIOFOULING” (Baker Hughes Incorporated, priority 2010, published 2015).

Columns and labels:
Type in all cases: cell-based
[1] = tested on: sulfate-reducing bacteria (SRB); test: SRB surviving 3 h treatment, serial dilution enumeration (NACE TMO 194-2004)
Excerpt: Following the treatment, an aliquot of each sample was serially diluted (10-fold dilutions) into culture media for SRB to enumerate the survivors according to NACE TMO 194-2004.

[2] = tested on: bacterial-fouled water taken from an oil production site; test: Turbidity of bacterial-fouled oilfield water culture in synthetic brine; conditions: 600 nm after 24 hours
Protocol: A sample of a bacterial-fouled water was taken from an oil production site and used as a culture base for testing of cinnamaldehyde as a bactericide. The culture was introduced into a synthetic brine (similar to that used for oilfield operations) and turbidity was measure at 600 nm after 24 hours.

[3] = tested on: acid-producing bacteria (APB); test: Mitigation of APB growth in seawater, dilution series bottles; conditions: 600 ppm product; seawater 3% TDS; contact 20 hours; three replicate columns
Protocol: Various biocidal blends with only 50% THPS, only XC800, and different mixtures were tested, along with a control, at preventing or mitigating APB growth. The media was seawater with 3% total dissolved solids (TDS). Contact times were 20 hours and the reaction volume was 50 ml, using 8 bottles per dilution series string. APB growth was measured from 0 to 4 in logarithmic units.
In FIG. 1, it is expected that the mitigation of APB growth would generally follow a straight line (dashed in FIG. 1) from 600 ppm THPS (50%) to 600 ppm XC800.

O=CC=Cc1ccccc1 [Cinnamaldehyde, cinnamaldehyde]
SRB Surviving Treatment ([1]; THPS 0 ppm, cinnamaldehyde 25 ppm): ≧10^10 SRB/ml
SRB Surviving Treatment ([1]; THPS 0 ppm, cinnamaldehyde 50 ppm): ≧10^10 SRB/ml
Turbidity ([2]; cinnamaldehyde 50 ppm): 1.854
Turbidity ([2]; cinnamaldehyde 125 ppm): 0.973
Turbidity ([2]; cinnamaldehyde 250 ppm): 0.175
Turbidity ([2]; cinnamaldehyde 375 ppm): 0.103
Turbidity ([2]; cinnamaldehyde 500 ppm): 0.113

tetrakis hydroxymethyl phosphonium sulfate [50% THPS only]
APB growth (0 to 4) [3]: 1 logarithmic units

tetrakis hydroxymethyl phosphonium sulfate [THPS]
SRB Surviving Treatment ([1]; THPS 50 ppm, cinnamaldehyde 0 ppm): ≧10^10 SRB/ml
SRB Surviving Treatment ([1]; THPS 100 ppm, cinnamaldehyde 0 ppm): ≧10^10 SRB/ml
SRB Surviving Treatment ([1]; THPS 250 ppm, cinnamaldehyde 0 ppm): 10^5 SRB/ml
